How the values were obtained:
Experiment in all cases: KinomeScan profiling
Assay type in all cases: binding
[1] = molecular target: CHEK2 (Homo sapiens, UniProt O96017); conditions: CHEK2, 1 μM; read-out: % control
Description: (§1) The kinase selectivity of inventive compounds 77, 96 and 101 was evaluated by KinomeScan®. KinomeScan® analysis was performed against a near comprehensive panel of 468 kinases. The control percentage (% control) for inventive compounds at 1 μM in DMSO was determined by Equation 1: % control=(inventive compound−positive control)/(negative control−positive control)×100%, Equation 1
(§2) wherein the positive control is a compound with a % control value of 0% relative light units (RLU), and the negative control (i.e., DMSO) has % control value of 100% RLU. The enzyme selectivity in the present invention is defined as follows: inventive compounds are considered active for an enzyme when the observed % control is less than 35% (<35%).

[2] = molecular target: MET(M1250T) (Homo sapiens, UniProt P08581, M1250T); conditions: read-out: % control
Description: as §1, §2

[3] = molecular target: T1, RSK2(Kin.Dom.1-N-terminal) (Homo sapiens, UniProt P51812); conditions: read-out: % control
T1 construct: RSK2(Kin.Dom.1-N-terminal)
Description: as §1, §2

[4] = molecular target: MEK1 (Homo sapiens, UniProt Q02750); conditions: MEK1, 1 μM; read-out: % control
Description: as §1, §2

[5] = molecular target: T2, EPHB1 (Homo sapiens, UniProt P54762); conditions: EPHB1, 1 μM; read-out: % control
T2 sequence (P54762 18-984): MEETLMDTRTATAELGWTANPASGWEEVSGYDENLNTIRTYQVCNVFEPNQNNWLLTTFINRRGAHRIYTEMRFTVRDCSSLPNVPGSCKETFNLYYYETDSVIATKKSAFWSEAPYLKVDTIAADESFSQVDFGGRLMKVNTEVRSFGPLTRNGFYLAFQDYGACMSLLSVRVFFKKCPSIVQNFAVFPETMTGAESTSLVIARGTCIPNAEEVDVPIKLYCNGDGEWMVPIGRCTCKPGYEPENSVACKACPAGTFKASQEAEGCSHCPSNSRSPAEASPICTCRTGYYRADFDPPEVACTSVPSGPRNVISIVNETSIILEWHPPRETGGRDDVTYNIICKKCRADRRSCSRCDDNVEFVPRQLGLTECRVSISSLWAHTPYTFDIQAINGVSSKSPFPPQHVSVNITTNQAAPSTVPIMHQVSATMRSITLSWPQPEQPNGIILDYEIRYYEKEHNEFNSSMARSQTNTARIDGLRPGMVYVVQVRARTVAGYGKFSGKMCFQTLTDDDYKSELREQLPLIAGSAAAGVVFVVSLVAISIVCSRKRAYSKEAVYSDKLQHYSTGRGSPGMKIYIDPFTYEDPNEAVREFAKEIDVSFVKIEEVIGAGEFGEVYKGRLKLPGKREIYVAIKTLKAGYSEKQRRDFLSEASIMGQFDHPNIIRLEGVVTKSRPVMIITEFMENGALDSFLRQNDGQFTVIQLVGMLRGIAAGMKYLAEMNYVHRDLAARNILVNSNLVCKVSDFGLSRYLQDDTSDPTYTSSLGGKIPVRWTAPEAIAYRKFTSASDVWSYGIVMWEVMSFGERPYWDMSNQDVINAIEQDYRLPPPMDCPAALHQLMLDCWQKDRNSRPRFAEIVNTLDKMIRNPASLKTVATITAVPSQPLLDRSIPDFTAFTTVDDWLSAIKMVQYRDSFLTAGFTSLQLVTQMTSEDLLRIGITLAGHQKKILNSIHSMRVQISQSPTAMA
Description: as §1, §2

[6] = molecular target: T3, NLK (Homo sapiens, UniProt Q9UBE8); conditions: read-out: % control
T3 sequence (Q9UBE8 1-527): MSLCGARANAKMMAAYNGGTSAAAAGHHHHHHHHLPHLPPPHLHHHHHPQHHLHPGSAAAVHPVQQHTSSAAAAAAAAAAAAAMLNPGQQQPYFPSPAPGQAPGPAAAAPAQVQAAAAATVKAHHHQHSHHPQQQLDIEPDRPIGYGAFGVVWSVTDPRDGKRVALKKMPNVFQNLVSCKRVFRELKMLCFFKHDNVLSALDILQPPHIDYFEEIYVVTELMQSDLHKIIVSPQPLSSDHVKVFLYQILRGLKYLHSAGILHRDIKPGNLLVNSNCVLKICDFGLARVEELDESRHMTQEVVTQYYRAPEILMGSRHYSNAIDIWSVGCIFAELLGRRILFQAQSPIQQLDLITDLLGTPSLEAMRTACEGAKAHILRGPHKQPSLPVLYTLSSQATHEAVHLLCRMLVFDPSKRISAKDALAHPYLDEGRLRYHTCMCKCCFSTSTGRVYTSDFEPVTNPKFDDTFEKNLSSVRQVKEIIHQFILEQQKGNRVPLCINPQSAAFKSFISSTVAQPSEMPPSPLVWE
Description: as §1, §2

[7] = molecular target: YSK1 (Homo sapiens, UniProt O00506); conditions: YSK1, 1 μM; read-out: % control
Description: as §1, §2

[8] = molecular target: MYLK2 (Homo sapiens, UniProt Q9H1R3); conditions: MYLK2, 1 μM; read-out: % control
Description: as §1, §2

[9] = molecular target: T4, PHKG2 (Homo sapiens, UniProt P15735); conditions: PHKG2, 1 μM; read-out: % control
T4 sequence (P15735 1-406): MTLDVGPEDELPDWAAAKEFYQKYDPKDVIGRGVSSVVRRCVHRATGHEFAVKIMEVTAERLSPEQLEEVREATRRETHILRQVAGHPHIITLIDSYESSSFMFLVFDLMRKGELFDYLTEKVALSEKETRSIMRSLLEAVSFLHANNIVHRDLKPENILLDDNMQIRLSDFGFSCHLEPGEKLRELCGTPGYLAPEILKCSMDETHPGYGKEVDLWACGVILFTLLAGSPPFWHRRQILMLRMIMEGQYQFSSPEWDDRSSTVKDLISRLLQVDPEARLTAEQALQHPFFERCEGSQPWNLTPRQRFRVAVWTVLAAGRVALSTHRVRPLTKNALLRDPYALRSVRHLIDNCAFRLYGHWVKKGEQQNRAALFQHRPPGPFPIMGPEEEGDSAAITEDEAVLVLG
Description: as §1, §2

[10] = molecular target: CLK3 (Homo sapiens, UniProt P49761); conditions: CLK3, 1 μM; read-out: % control
Description: as §1, §2

[11] = molecular target: RET(V804M) (Homo sapiens, UniProt P07949, V804M); conditions: read-out: % control
Description: as §1, §2

[12] = molecular target: PKNB(M. tuberculosis) (Mycobacterium tuberculosis, UniProt P9WI81); conditions: read-out: % control
Chain of PKNB(M. tuberculosis) (P9WI81 whole entry): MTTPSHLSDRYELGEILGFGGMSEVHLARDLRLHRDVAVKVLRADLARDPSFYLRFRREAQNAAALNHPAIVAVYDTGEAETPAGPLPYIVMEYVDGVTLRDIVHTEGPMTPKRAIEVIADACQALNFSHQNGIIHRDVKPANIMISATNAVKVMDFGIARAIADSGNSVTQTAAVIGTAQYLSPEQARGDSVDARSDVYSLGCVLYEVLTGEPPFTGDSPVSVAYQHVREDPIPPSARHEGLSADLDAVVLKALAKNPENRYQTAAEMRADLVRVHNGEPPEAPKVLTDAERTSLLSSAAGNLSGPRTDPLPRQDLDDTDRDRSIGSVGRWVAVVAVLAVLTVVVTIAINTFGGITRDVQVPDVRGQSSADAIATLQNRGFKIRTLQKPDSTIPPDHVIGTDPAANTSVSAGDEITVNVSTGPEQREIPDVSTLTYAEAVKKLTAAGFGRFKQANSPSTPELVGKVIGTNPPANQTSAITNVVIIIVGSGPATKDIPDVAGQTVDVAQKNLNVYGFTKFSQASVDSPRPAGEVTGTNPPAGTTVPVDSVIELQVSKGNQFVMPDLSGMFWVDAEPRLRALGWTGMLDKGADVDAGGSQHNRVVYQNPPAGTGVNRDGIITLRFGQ

T1 sequence (P51812 68-327 limits assumed): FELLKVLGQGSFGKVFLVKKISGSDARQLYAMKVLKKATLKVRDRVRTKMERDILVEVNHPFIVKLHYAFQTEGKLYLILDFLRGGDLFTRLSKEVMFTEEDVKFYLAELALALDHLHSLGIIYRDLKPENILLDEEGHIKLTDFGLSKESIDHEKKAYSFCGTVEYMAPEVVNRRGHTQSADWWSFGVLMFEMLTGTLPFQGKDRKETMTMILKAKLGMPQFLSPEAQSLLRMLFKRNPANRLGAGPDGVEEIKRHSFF
Chain of CLK3 (P49761 whole entry): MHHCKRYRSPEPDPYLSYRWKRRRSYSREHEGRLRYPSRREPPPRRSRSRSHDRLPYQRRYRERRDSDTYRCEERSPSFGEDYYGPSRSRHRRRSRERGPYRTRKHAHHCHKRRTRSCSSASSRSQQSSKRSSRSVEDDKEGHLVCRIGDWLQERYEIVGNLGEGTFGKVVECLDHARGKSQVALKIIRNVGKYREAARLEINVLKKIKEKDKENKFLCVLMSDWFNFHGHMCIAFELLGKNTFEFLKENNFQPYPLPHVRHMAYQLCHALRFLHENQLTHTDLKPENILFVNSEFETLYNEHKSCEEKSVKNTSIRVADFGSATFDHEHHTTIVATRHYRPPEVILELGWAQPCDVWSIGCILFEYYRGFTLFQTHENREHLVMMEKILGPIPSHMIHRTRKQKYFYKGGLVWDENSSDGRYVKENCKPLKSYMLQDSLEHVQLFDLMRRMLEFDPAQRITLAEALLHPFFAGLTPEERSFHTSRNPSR
Chain of MEK1 (Q02750 whole entry): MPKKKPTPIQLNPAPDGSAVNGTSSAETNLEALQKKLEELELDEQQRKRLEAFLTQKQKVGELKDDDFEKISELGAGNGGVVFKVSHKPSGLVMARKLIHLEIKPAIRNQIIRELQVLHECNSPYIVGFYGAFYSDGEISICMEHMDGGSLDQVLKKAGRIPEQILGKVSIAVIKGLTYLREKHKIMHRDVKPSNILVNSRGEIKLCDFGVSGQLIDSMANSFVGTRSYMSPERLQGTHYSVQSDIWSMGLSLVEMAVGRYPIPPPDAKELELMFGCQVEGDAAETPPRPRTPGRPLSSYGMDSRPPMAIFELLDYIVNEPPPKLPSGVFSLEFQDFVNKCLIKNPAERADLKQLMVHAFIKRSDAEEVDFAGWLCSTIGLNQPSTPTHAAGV
Chain of CHEK2 (O96017 whole entry): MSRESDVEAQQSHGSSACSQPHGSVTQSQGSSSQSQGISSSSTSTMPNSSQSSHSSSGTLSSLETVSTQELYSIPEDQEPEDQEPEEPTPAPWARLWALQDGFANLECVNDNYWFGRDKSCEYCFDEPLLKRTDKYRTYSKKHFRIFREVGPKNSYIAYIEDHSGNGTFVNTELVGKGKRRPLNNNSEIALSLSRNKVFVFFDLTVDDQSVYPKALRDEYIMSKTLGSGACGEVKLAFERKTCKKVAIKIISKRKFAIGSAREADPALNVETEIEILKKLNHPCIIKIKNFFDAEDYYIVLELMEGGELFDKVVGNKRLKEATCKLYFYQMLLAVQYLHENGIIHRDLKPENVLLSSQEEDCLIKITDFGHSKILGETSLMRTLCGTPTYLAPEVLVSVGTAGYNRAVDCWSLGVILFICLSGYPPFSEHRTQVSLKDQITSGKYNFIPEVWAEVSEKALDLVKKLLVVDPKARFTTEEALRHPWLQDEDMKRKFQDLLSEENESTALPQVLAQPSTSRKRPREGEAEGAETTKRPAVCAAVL
Chain of RET(V804M) (P07949 29-1114 V804M): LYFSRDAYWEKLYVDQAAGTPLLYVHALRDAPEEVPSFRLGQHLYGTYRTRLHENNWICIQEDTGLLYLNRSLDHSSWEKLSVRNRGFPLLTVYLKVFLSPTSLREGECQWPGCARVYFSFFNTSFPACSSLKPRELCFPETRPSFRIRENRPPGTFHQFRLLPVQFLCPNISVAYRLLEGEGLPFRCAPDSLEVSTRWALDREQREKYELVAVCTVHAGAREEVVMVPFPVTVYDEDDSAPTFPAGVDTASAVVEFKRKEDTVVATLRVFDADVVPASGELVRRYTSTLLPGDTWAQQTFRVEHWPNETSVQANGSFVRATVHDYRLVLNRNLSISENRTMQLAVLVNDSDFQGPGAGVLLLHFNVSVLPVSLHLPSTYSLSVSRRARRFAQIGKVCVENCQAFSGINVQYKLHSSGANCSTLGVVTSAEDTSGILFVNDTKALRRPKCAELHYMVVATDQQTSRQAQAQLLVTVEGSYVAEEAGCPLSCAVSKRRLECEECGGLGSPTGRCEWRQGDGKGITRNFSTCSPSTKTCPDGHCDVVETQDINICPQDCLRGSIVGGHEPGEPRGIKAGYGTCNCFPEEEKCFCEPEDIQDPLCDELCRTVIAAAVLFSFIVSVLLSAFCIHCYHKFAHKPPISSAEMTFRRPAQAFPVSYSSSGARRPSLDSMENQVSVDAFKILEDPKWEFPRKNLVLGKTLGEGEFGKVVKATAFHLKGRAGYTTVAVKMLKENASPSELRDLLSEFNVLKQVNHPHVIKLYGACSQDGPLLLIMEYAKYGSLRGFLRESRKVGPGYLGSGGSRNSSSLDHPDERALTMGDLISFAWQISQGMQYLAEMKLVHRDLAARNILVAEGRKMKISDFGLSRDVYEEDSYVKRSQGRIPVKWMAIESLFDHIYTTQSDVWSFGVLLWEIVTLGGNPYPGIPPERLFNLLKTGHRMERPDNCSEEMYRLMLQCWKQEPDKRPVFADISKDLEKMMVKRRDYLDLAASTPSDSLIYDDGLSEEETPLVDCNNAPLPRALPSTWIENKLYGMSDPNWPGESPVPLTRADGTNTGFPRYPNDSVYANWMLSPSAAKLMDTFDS
Chain of MYLK2 (Q9H1R3 whole entry): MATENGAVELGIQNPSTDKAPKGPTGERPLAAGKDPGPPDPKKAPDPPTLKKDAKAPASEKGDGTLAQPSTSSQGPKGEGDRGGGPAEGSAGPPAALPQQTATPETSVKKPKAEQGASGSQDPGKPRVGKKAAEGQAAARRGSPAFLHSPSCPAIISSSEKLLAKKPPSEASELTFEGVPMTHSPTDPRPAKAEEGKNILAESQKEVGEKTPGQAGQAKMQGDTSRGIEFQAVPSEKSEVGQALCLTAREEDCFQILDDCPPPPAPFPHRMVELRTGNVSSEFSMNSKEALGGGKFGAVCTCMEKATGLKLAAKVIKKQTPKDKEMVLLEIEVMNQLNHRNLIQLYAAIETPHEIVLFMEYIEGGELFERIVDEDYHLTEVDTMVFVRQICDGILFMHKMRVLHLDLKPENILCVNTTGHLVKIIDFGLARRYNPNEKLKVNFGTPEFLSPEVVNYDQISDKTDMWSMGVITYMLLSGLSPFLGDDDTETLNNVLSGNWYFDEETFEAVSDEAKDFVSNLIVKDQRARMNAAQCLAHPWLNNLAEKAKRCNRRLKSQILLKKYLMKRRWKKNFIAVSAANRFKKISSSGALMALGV
Chain of YSK1 (O00506 whole entry): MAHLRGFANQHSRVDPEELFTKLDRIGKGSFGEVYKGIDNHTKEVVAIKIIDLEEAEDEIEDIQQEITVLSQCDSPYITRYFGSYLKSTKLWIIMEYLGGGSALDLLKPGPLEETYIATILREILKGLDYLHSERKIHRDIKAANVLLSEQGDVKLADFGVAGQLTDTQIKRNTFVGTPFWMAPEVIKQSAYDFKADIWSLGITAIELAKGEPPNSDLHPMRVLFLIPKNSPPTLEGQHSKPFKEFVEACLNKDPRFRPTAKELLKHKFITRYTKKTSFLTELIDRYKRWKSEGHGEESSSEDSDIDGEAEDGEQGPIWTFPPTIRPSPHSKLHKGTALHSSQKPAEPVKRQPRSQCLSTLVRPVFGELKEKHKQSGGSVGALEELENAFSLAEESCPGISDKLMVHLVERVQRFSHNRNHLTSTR

| Structure (SMILES) | remaining binding at 1 µM [1] [%] | remaining binding at 1 µM [2] [%] | remaining binding at 1 µM [3] [%] | remaining binding at 1 µM [4] [%] | remaining binding at 1 µM [5] [%] | remaining binding at 1 µM [6] [%] | remaining binding at 1 µM [7] [%] | remaining binding at 1 µM [8] [%] | remaining binding at 1 µM [9] [%] | remaining binding at 1 µM [10] [%] | remaining binding at 1 µM [11] [%] | remaining binding at 1 µM [12] [%] |
| --- | --- | --- | --- | --- | --- | --- | --- | --- | --- | --- | --- | --- |
| CNc1c(-c2cnn([C@H]3CCN(C(C)=O)C[C@@H]3F)c2)cnc2[nH]cc(Cl)c12 [Compound 77, 1-((3S,4S)-4-(4-(3-chloro-4-(methylamino)-1H-pyrrolo[2,3-b]pyridin-5-yl)-1H-pyrazol-1-yl)-3-fluoropiperidin-1-yl)ethan-1-one] | 56 | 49 | 54 | 29 | 93 | 95 | 84 | 79 | 52 | 88 | 52 | 30 |
| CNc1c(-c2ccc(C(=O)N3CCC(N4CCOCC4)CC3)cc2)cnc2[nH]cc(Cl)c12 [Compound 96, (4-(3-chloro-4-(methylamino)-1H-pyrrolo[2,3-b]pyridin-5-yl)phenyl)(4-morpholinopiperidin-1-yl)methanone] | 22 | 78 | 54 | 12 | 100 | 100 | 97 | 51 | 19 | 98 | 61 | 61 |
| O=C(c1ccc(-c2cnc3[nH]cc(Cl)c3c2NC2CCCC2)cc1)N1CCC(N2CCOCC2)CC1 [Compound 101, (4-(3-chloro-4-(cyclopentylamino)-1H-pyrrolo[2,3-b]pyridin-5-yl)phenyl)(4-morpholinopiperidin-1-yl)methanone] | 92 | 23 | 65 | 94 | 95 | 88 | 100 | 94 | 100 | 97 | 99 | 89 |
